According to article PMC11266321 (EJNMMI Radiopharmacy and Chemistry, 2024):

Assays:
Muscarinic M2 = molecular target: T1, Muscarinic M2 (Homo sapiens, UniProt P08172); test: Radioligand binding inhibition, Muscarinic M2; settings: 10 µM; radioligand [^3H]AF-DX384; mean of duplicate
T1 construct: Sekisui Medical (contract laboratory)
Procedure: (§1) Interaction of MMP with 28 binding sites was examined, including major classes of neurotransmitter receptor, uptake system, and ion channels (Sekisui Medical, Naka, Japan). MMP was tested in all assays at 10 µM. […] Each determination was made in duplicate.
(§2) Test substance concentration : 10 µM, positive substance concentration : 10 µM
(§3) Data are expressed as the mean values of duplicate samples.
(§4) The % inhibition was calculated from “100 – binding ratio”.
(§5) Binding ratio: [(B - N) / (B0 - N)] × 100 (%)
(§6) B: Bound radioactivity in the presence of test substance and positive substance (individual value)
(§7) B0: Total bound radioactivity in the absence of test substance and positive substance (mean value)
(§8) N: Non-specific bound radioactivity (mean value)

Adenosine A2 = molecular target: T2, Adenosine A2 (Homo sapiens, UniProt P29274); test: Radioligand binding inhibition, Adenosine A2; settings: 10 µM; radioligand [^3H]CGS21680; mean of duplicate
T2 construct: Sekisui Medical (contract laboratory)
T2 sequence (P29274 whole entry): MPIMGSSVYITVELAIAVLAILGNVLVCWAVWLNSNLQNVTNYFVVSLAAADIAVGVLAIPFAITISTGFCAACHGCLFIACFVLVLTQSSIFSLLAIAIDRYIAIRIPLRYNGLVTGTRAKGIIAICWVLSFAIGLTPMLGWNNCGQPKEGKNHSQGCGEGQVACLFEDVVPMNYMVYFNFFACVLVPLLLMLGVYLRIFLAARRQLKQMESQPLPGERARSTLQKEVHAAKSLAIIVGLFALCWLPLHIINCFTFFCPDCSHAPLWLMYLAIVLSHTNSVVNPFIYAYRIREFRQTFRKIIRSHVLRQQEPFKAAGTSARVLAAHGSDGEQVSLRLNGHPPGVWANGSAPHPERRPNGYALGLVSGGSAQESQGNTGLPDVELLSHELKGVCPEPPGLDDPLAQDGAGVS
Procedure: as §1, §2, §3, §4, §5, §6, §7, §8

[1] = test system: Escherichia coli (WP2uvrA); test: Ames test (reverse bacterial mutation test), E. coli; assay type: cell-based; settings: with and without S9 mixture, 78.1–5000 µg/plate
Source text: The MMP was custom synthesized by the Nard Institute (Kobe, Japan) using methods described previously (Toyohara et al. [2020a]). All other chemical reagents were obtained from commercial sources. Male ddY mice were obtained from Japan SLC (Hamamatsu, Japan). Sprague–Dawley rats [Crl: CD(SD)] were obtained from […] (Yokohama, Japan). Animal studies were approved by the Animal Care and Use Committee of the Tokyo Metropolitan Institute for Geriatrics and Gerontology (Approval Nos. 22,015 and 23,007) and Nihon Bioresearch (Hashima, Japan; Approval Nos. 430,085 and 430,086). Acute toxicity studies were performed under the “Revisions of the Guidelines for Single and Repeated Dose Toxicity Studies” (PMDA, 1993). Ames test was performed under the “Guidance on Genotoxicity Testing and Data Interpretation for Pharmaceuticals Intended for Human Use” (PMDA, 2012).
Mutagenicity tests were performed at the Hashima Research Center, Nihon Bioresearch, under non-GLP control. MMP was tested for mutagenicity by the Ames test with four histidine-requiring strains of Salmonella typhimurium (TA98, TA100, TA1535, and TA1537) and one strain of Escherichia coli (WP2uvrA), with and without the S9 mixture, at a dose range of 78.1–5000 µg/plate according to the standard method.

GABA A (BZ central) = test: Radioligand binding inhibition, GABA A BZ central; settings: 10 µM; radioligand [^3H]Flunitrazepam; mean of duplicate
Procedure: (§9) Interaction of MMP with 28 binding sites was examined, including major classes of neurotransmitter receptor, uptake system, and ion channels (Sekisui Medical, Naka, Japan). MMP was tested in all assays at 10 µM. […] 10.2.3 (GraphPad Software, San Diego, CA). Each determination was made in duplicate.
as §2, §3, §4, §5, §6, §7, §8

Adenosine A1 = molecular target: T3, Adenosine A1 (Homo sapiens, UniProt P30542); test: Radioligand binding inhibition, Adenosine A1; settings: 10 µM; radioligand [^3H]DPCPX; mean of duplicate
T3 construct: Sekisui Medical (contract laboratory)
T3 sequence (P30542 whole entry): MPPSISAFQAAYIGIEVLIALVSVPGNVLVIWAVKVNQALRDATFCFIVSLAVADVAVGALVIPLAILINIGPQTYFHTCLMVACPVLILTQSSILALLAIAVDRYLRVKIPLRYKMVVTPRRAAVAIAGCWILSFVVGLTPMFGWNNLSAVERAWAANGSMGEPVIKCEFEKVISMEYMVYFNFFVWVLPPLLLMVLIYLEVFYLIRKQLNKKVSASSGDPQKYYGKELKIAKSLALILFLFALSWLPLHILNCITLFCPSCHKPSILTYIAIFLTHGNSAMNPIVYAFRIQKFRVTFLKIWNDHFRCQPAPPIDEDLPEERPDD
Procedure: as §1, §2, §3, §4, §5, §6, §7, §8

[2] = test system: α2-Adrenergic (non-selective); test: Radioligand binding inhibition, α2-Adrenergic; settings: 10 µM; radioligand [^3H]Rauwolscine; mean of duplicate
Procedure: as §9, §2, §3, §4, §5, §6, §7, §8

Histamine H1 (central) = molecular target: T4, Histamine H1 (central) (Homo sapiens, UniProt P35367); assay type: binding; settings: 10 µM; radioligand [^3H]Pyrilamine; mean of duplicate
T4 construct: Sekisui Medical (contract laboratory)
T4 sequence (P35367 whole entry): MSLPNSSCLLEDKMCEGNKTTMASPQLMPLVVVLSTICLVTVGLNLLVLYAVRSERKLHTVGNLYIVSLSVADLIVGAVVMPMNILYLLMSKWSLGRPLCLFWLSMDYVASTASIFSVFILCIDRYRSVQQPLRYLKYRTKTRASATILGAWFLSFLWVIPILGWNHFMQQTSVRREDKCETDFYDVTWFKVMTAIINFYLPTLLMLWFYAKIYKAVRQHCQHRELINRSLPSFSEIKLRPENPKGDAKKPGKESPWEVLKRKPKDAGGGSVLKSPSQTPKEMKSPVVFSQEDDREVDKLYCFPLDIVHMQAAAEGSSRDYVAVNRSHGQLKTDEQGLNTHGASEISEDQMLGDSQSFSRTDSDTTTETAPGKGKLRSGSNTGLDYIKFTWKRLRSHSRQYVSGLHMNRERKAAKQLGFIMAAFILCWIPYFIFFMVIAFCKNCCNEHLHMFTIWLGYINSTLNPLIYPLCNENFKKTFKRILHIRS

[3] = molecular target: T5, Glutamate (NMDA glycine site) (Homo sapiens, UniProt Q05586); test: Radioligand binding inhibition, Glutamate NMDA glycine site; settings: 10 µM; radioligand [^3H]MDL105,519; mean of duplicate
T5 construct: Sekisui Medical (contract laboratory)
Procedure: as §9, §2, §3, §4, §5, §6, §7, §8

Nicotinic (neuronal) = assay type: binding; settings: 10 µM; radioligand [^3H]Cytisine; mean of duplicate
Opiate (non-selective) = test: Radioligand binding inhibition, Opiate; settings: 10 µM; radioligand [^3H]Naloxone; mean of duplicate
Procedure: as §9, §2, §3, §4, §5, §6, §7, §8

Serotonin 5HT1A = molecular target: T6, Serotonin 5HT1A (Homo sapiens, UniProt P08908); test: Radioligand binding inhibition, Serotonin 5HT1A; settings: 10 µM; radioligand [^3H]8-OH DPAT; mean of duplicate
T6 construct: Sekisui Medical (contract laboratory)
T6 sequence (P08908 whole entry): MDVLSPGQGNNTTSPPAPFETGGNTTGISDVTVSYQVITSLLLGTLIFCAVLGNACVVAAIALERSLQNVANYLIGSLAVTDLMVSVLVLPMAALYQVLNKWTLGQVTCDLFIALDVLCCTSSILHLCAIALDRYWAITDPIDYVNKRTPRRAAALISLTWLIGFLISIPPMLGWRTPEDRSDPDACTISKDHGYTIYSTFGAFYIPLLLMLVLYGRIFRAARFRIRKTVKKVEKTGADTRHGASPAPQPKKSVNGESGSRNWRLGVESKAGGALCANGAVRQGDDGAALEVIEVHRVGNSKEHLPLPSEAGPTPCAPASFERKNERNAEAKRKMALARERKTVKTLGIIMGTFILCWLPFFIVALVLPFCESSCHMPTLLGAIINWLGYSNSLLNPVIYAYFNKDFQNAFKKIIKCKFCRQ
Procedure: as §9, §2, §3, §4, §5, §6, §7, §8

Serotonin 5HT2A = molecular target: T7, Serotonin 5HT2A (Homo sapiens, UniProt P28223); test: Radioligand binding inhibition, Serotonin 5HT2A; settings: 10 µM; radioligand [^3H]Ketanserin; mean of duplicate
T7 construct: Sekisui Medical (contract laboratory that ran the panel)
T7 sequence (P28223 whole entry): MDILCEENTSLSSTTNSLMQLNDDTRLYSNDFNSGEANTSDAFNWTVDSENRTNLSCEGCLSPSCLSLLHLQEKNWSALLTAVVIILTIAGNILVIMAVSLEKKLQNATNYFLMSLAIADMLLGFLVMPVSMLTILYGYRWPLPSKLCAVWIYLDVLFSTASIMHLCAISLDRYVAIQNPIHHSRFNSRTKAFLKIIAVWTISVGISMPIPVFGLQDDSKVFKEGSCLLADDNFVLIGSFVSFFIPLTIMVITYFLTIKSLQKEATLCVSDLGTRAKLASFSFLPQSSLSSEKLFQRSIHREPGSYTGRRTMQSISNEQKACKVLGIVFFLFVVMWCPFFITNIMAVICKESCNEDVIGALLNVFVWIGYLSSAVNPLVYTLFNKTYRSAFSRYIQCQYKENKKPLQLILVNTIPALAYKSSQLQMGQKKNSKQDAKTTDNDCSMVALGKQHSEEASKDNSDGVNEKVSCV
Procedure: as §9, §2, §3, §4, §5, §6, §7, §8

[4] = test system: α1-Adrenergic (non-selective); test: Radioligand binding inhibition, α1-Adrenergic; settings: 10 µM; radioligand [^3H]Prazosin; mean of duplicate
[5] = test system: Glutamate (NMDA phencyclidine site); test: Radioligand binding inhibition, Glutamate NMDA phencyclidine site; settings: 10 µM; radioligand [^3H]MK-801; mean of duplicate
Procedure: as §9, §2, §3, §4, §5, §6, §7, §8

Muscarinic M1 = molecular target: T8, Muscarinic M1 (Homo sapiens, UniProt P11229); assay type: binding; settings: 10 µM; radioligand [^3H]Pirenzepine; mean of duplicate
T8 construct: Sekisui Medical (contract laboratory)
T8 sequence (P11229 whole entry): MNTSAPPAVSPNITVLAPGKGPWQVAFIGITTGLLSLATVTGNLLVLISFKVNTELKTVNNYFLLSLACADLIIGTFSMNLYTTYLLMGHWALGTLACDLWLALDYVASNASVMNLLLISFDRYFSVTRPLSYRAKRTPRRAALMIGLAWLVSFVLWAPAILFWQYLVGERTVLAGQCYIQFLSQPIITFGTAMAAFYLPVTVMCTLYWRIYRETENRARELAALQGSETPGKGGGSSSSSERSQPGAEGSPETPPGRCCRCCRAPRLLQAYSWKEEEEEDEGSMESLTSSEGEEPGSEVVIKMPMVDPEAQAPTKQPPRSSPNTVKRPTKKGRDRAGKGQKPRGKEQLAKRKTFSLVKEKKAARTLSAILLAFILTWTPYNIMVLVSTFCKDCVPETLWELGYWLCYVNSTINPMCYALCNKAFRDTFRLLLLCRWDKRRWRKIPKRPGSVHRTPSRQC

[6] = test system: other brain neuroreceptors; test: Receptor selectivity panel, other binding sites; settings: 10 µM; binding sites other than sigma
Procedure: as §9

GABA A (agonist site) = test: Radioligand binding inhibition, GABA A agonist site; settings: 10 µM; radioligand [^3H]Muscimol; mean of duplicate
Procedure: as §9, §2, §3, §4, §5, §6, §7, §8

T1 sequence (P08172 whole entry): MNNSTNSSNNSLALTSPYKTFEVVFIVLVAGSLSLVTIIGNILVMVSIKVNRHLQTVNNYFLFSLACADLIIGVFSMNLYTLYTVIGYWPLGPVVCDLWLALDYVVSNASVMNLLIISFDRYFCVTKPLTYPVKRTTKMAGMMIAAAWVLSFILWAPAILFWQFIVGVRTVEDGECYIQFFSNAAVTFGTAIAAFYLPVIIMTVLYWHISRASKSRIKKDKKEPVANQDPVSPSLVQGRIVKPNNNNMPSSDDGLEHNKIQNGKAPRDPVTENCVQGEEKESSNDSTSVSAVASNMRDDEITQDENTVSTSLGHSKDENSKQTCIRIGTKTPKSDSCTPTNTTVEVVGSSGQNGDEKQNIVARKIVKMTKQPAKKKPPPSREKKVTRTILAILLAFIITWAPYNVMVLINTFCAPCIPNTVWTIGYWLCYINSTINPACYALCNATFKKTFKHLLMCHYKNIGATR

SMILES: Cc1ccc(CC(C)NC(C)C)cc1 (centres unmarked) [MMP, N-isopropyl-p-methylamphetamine]
- Inhibition ratio (%) (Muscarinic M2): 23.38%
- Inhibition ratio (%) (Adenosine A2): 1.64%
- mutagenic activity [1]: no mutagenic activity
- Inhibition ratio (%) (GABA A (BZ central)): 2.17%
- Inhibition ratio (%) (Adenosine A1): 3.26%
- Inhibition ratio (%) [2]: 42.47%
- Inhibition ratio (%) (Histamine H1 (central)): 11.97%
- Inhibition ratio (%) [3]: 0.22%
- Inhibition ratio (%) (Nicotinic (neuronal)): 0.00%
- Inhibition ratio (%) (Opiate (non-selective)): 4.92%
- Inhibition ratio (%) (Serotonin 5HT1A): 15.84%
- Inhibition ratio (%) (Serotonin 5HT2A): 24.12%
- Inhibition ratio (%) [4]: 44.47%
- Inhibition ratio (%) [5]: 0.00%
- Inhibition ratio (%) (Muscarinic M1): 27.81%
- inhibition, other brain neuroreceptors [6]: < 50%
- Inhibition ratio (%) (GABA A (agonist site)): 3.62%
